# According to patent US9512425B2, “Inhibiting migration of cancer cells” (Cornell University, priority 2012, dated 2016):
# Entries after “also recorded” stand apart in the source; their conditions may differ.
# Assays:
# NNAT protein = test: Western blot of NNAT; type: cell-based, human
# Procedure: (§1) Cells were homogenized in 1×RIPA lysis buffer (Millipore) containing protease inhibitors (Roche Applied Science) and 1× phosphatase inhibitor (Thermo Scientific). Samples were boiled in 1× NuPAGE LDS sampling buffer (Invitrogen), and loaded onto 4-20% gradient Tris-HCl gels (BioRad). Western blotting was performed using antibodies specific for NNAT (Cat#AB27266, Abcam), EPDR1 (Cat# SC81820, Santa Cruz), SSRP1 (Cat#SC56782, Santa Cruz), HOXB3 (Cat# SC17161, Santa Cruz), HNRNPK (Cat# SC28380, Santa Cruz), CNTFR, Phospho-p44/42 MAPK (Erk1/2, Cat #4370, Cell Signaling), p44/42 MAPK (Erk1/2, Cat #4695, Cell Signaling), VINCULIN (Cat#V9131, Sigma-Aldrich), and β-ACTIN (Sigma-Aldrich).
# Nnat 3'-UTR = test: 3'-UTR dual luciferase assay; type: cell-based, human
# Procedure: (§2) The 3′-UTR of a gene of interest was amplified by PCR and cloned into a pmirGLO Dual-Luciferase miRNA Target Expression Vector (Promega). To express miRNA, synthetic premiRNA precursor for miR-708 and control scrambled miRNA were purchased from Applied Biosystems (Ambion). The miRNA precursor and pmirGLO Dual-Luciferase 3′-UTR vector were co-transfected into […] cells using the siPORT NeoFX Transfection Agent following manufacturer's instructions (Ambion). Cells were harvested and lysed at 48 hr post-transfection. The interaction between miR-708 and target 3′-UTR was measured by Dual-luciferase assay system (Promega).
# Akt2 = Akt2 suppression in breast cancer cells (data not shown); type: cell-based
# [1] = test system: metastatic prostate cancer cells PC3; test: Migration of PC3 cells with ectopic miR-708; type: cell-based, human; settings: ectopic expression of miR-708 in PC3
# Gon4l 3'-UTR = test: 3'-UTR dual luciferase assay; type: cell-based; settings: 293T cells, Renilla/Firefly ratio
# Procedure: as §2
# CD44 3'-UTR = test: 3'-UTR dual luciferase assay; type: cell-based; settings: 293T cells, Renilla/Firefly ratio
# Procedure: as §2
# Ntrk2 3'-UTR = test: 3'-UTR dual luciferase assay; type: cell-based; settings: 293T cells, Renilla/Firefly ratio
# Procedure: as §2
# MDA-LM2 (LM2) = test: Orthotopic MDA-LM2 tumor / pulmonary metastasis model; type: in vivo, mice
# Procedure: For orthotopic injection, 1×10^6 viable MDA-MB-231, MDA-Cont, or MDA-miR-708 cells were injected into CB-17 SCID mice fat pads in a volume of 0.1 ml. Tumor growth and pulmonary metastases (following resection of primary tumor) were monitored by live animal bioluminescent imaging (Xenogen IVIS system) once per week.
# Mice inoculated with firefly luciferase were anaesthetized and injected retro-orbitally with 75 mg/kg of D-luciferin (30 mg/mL in PBS). Images were taken with mice in a supine position using the Xenogen IVIS system coupled to Living Image acquisition and analysis software (Xenogen). For bioluminescence (BLI) plots, photon flux was calculated for each mouse by using a rectangular region of interest encompassing the thorax of the mouse.
# Paraffin embedded sections (5 μm) were deparaffinized following standard protocols. […] Images were obtained with an Axiovert 40 CFL microscope coupled with Axioversion 4.8.2 software (Carl Zeiss). For nodule counting, lungs were perfused, isolated and OCT embedded and sectioned for immunohistochemical analysis. Cryosections (8 μm) were mounted on glass slides and stained with hematoxylin and eosin (H&E).
# To measure number of CTC in blood, 100 μl of peripheral blood was collected from mice bearing orthotopic […] expressing MDA and MDA-mir-708 breast tumors. Total RNA was isolated and subjected to Taqman Q-PCR for GFP transgene. To convert quantitative-PCR data into number of CTCs, a standard curve was generated by serially diluting GFP+MDA tumor spiked into […] of normal wild type mouse blood.
# p-ERK (T202) = test: Western blot of p-ERK after ATP stimulation; type: cell-based, human; settings: MDA-miR-708 vs MDA cells after ATP
# Procedure: as §1
substance,measurement,setting,value
"miR-708: microRNA, mature sequence 5'-AAGGAGCUUACAAUCUAGCUGGG-3' (SEQ ID NO: 2); expressed from lentiviral vector or used as synthetic precursor",expression of NNAT protein,"NNAT protein; MDA-708 vs MDA control cells, constitutive expression",significantly decreased
same,Nnat levels,NNAT protein; doxycycline-mediated conditional expression of miR-708,significant reduction
same,NNAT expression from Nnat cDNA,"NNAT protein; mutant 3'-UTR (Nnat-mut), synthetic miR-708",abolished miR-708-mediated suppression
same,NNAT expression from Nnat cDNA,"NNAT protein; wild type UTR, synthetic miR-708 vs scrambled",suppressed expression
same,repression of 3'-UTR luciferase reporter,"Nnat 3'-UTR; 293T cells, Renilla/Firefly ratio",significant repression
same,repression of wild type UTR (Nnat-UTR) reporter,"Nnat 3'-UTR; synthetic miR-708 vs scrambled miRNA, intact UTR",effectively suppressed
same,repression of mutant UTR (Nnat-UTR-mut) reporter,"Nnat 3'-UTR; synthetic miR-708 vs scrambled miRNA, mutated binding site",refractory to suppression
same,Akt2 suppression,Akt2,not suppressed
same,migration,[1],suppressed migration
same,repression of 3'-UTR luciferase reporter,Gon4l 3'-UTR,significant repression
same,repression of 3'-UTR luciferase reporter,CD44 3'-UTR,significant repression
same,repression of 3'-UTR luciferase reporter,Ntrk2 3'-UTR,significant repression
same,primary tumor growth,"MDA-LM2 (LM2); LM2 cells over-expressing miR-708, day 60",remained unperturbed
same,lung metastases (photon flux),"MDA-LM2 (LM2); LM2 cells over-expressing miR-708, day 67",significantly lower photon flux; also recorded: pronounced reduction
same,number of lung metastatic nodules,"MDA-LM2 (LM2); MDA-LM2-miR-708 vs controls, H&E sections",reduced numbers
same,number of circulating tumor cells (CTCs),MDA-LM2 (LM2); peripheral blood of MDA-LM2-miR-708 tumor bearing mice vs controls,reduced number
same,primary tumor size measurements,"MDA-LM2 (LM2); weight over time, FIG. 7H",unaffected
same,activated Erk (p-Erk) levels,p-ERK (T202),reduced levels
